Experimental findings from patent US12018029B2, “Hexahydropyrrolo[3,4-c]pyrrole derivatives useful as LOX inhibitors” (THE INSTITUTE OF CANCER RESEARCH: ROYAL CANCER HOSPITAL, priority 2018, dated 2024) are described below.

The structures appear in SMILES notation.

Test [1] has as its system MMTV-PyMT lung metastases. In words: MMTV-PyMT transgenic mouse breast cancer model, lung metastases. The test is classed as in vivo, mice. To be noted: @67 mpk po qd, p<0.05. As for the experimental part:
(§1) LOX Inhibitor Treatment of a Transgenic Mouse Breast Cancer Model
MMTV-PyMT (Guy et al, 1992) (FVB) female mice were randomized by non-statistical methods to LOX inhibitor treatment groups from day 70 post-birth, when animals had no detectable tumour. Mice were treated daily by oral gavage with LOX inhibitor in vehicle, or daily vehicle (5% DMSO/2.5% Tween20 in water) by oral gavage. Tumour size was determined unblinded by caliper measurements of tumour length, width and depth and volume was calculated as 0.5236×length×width×depth (mm). In all experiments, mice were humanely killed and mammary tumours and lungs were collected when the primary tumours reached ethical limits or signs of ill health.
For lung metastases quantification, all mouse tissue samples were fixed in 10% formalin (Sigma) and embedded in paraffin. […] Lung metastases number was counted and area was measured using ImageScope. […] The ratio of average metastases surface between compound treated and vehicle control treated (T/C) is calculated. The ratio of average metastases numbers between compound treated and vehicle control treated (T/C) is also calculated. […] The antimetastatic efficacy of LOX inhibitors described in this invention, as measured by T/C in a model of breast cancer metastasizing to lungs is shown in Table 3 and is significant (p<0.05) for all the data presented.

In test [2] the test system is MDA-MB-231 human breast adenocarcinoma. The experiment in a line: MDA-MB-231 xenografts, primary tumour. The test is classed as in vivo. To be noted: ratio of average tumour volume treated/vehicle; 200 mg/kg po qd; p<0.05. The procedure:
(§2) All procedures involving animals were approved by the Animal Welfare and Ethical Review Body of the Institute of Cancer Research and Cancer Research UK Manchester Institute in accordance with National Home Office regulations under the Animals (Scientific Procedures) Act 1986 and according to the guidelines of the Committee of the National Cancer Research Institute Tumour size was determined by caliper measurements of tumour length, width and depth and volume was calculated as volume=0.5236×length×width×depth (mm).
MDA-MB-231 xenografts. […] Tumours and weights are measured twice weekly using calipers and the animals can be imaged using non-invasive method by bioluminescence using IVIS 200 imaging machine, weekly using 150 mg/kg luciferin administrate intraperitoneal or subcutaneous. […] Frozen samples kept at −80 degree centigrade until being analyzed and the fixed samples stained according to desired marker.
(§3) For therapeutic efficacy assessment, the ratio of average tumour volume between compound treated and vehicle control treated (T/C) is calculated. […] The efficacy of LOX inhibitors described in this invention, as measured by T/C in a pancreatic cancer model, a colorectal cancer model and a breast cancer model is shown in Table 3 and is significant (p<0.05) for all the data presented.

Test [3] has as its system PDAC KPC TRP53 R172H (p53 mut) cells. The experiment in a line: PDAC allograft, primary tumour, R172H (p53 mut). It is filed as in vivo, mouse. To be noted: ratio of average tumour volume treated/vehicle; 200 mg/kg po qd; p<0.05. As for the experimental part:
as §2
PDAC allografts: CD1 nu/nu female mice at 6 weeks of age were inoculated subcutaneously in the right flank with 2×10^6 PDAC KPC TRP53 R172H (p53 mut) cells at 100 ul suspension per animal. […] Tumours and weights are measured twice weekly using calipers. […] Frozen samples kept at −80 degree centigrade until being analysed and the fixed samples stained according to the desired marker.
as §3

The test system of test [4] is SW620 human colorectal carcinoma cells (mutant RAS). In words: SW620 xenografts, primary tumour. The test is classed as in vivo. To be noted: ratio of average tumour volume treated/vehicle; 200 mg/kg po qd; p<0.05. The procedure: as §2
SW620 xenografts: NCr mice were inoculated subcutaneously in the right flank with 5×10^6 SW620 cells at 100 ul suspension per animal. Groups of 7-8 mice were assigned to treatment following stratified allocation of tumour volumes with a median size of circa 100 mm^3. […] Tumours and weights are measured twice weekly using calipers. […] Frozen samples are kept at −80 degree centigrade until being analysed and the fixed samples stained according to the desired marker.
as §3

Test [5] deals with MMTV-PyMT mammary tumours. In words: MMTV-PyMT transgenic mouse breast cancer model, primary tumour. The note with it: ratio of average tumour volume treated/vehicle; @67 mpk po qd; p<0.05. It is filed as in vivo, mice. As for the experimental part:
as §2, §1
MMTV-PyMT (Guy et al, 1992) (FVB) female mice were randomized by non-statistical methods to LOX inhibitor treatment groups from day 70 post-birth, when animals had no detectable tumour. […] Tumour size was determined unblinded by caliper measurements of tumour length, width and depth and volume was calculated as 0.5236×length×width×depth (mm). […]
as §3

Turning to `CCOc1ccc(N2C[C@H]3CN(C(=O)NCCO)C[C@H]3C2)cc1` [Example 1, cis-5-(4-Ethoxyphenyl)-N-(2-hydroxyethyl)hexahydropyrrolo[3,4-c]pyrrole-2(1H)-carboxamide], in test [1] (ratio of average lung metastases numbers treated/vehicle), the “T/C, MMT-PyMT breast transgenic model - metastases a) Count” value is “a) 0.14”. In addition, the “T/C, MMT-PyMT breast transgenic model - metastases b) Area” value in test [1] (ratio of average lung metastases surface treated/vehicle) is reported as “b) 0.02”. Besides, the “T/C, MDA-MB-231 human breast adenocarcinoma - primary tumour” value in test [2] is 0.29. Moreover, in test [3], the “T/C, PDAC (mouse pancreatic carcinoma) primary tumour a) R172H (p53mut)” value was “a) 0.54”. In test [4], the “T/C, SW620 human colorectal carcinoma cells (mutant RAS) - primary tumour” value turned out to be 0.55. For the same compound, the “T/C, MMT-PyMT breast transgenic model - primary tumour” value in test [5] came to 0.3.
